Assay results as given in paper PMC8086025, “A benzopyran with antiarrhythmic activity is an inhibitor of Kir3.1-containing potassium channels” (The Journal of Biological Chemistry, 2021).
pIC50, pKi: −log10 of the molar value. Like-named read-outs stand apart in the source and are kept apart here.

Legend:
Kir3.4 = biological target: T1, Kir3.4 (Homo sapiens, UniProt P48544); assay: Cloned cardiac ion channel patch clamp, Kir3.4; type: cell-based
T1 construct: expressed in transfected cells

Nav = assay: Radioligand binding, rat cerebral cortex
Kir6.2/SUR2A = biological target: T2, Kir6.2/SUR2A (Homo sapiens, UniProt O60706+Q14654); assay: Cloned cardiac ion channel patch clamp, Kir6.2/SUR2A; type: cell-based
T2 construct: Andrew Tinker, UCL; host or cells: HEK293

[1] = Plasma protein binding, human; type: in vitro ADME; settings: read-out: Human PPB (converted)
[2] = Plasma protein binding, dog; type: in vitro ADME; settings: read-out: Dog PPB (converted)
Kir3.4/4(S143F, N179D) = biological target: T3, Kir3.4/4(S143F, N179D) (Homo sapiens, UniProt P48544, N179D/S143F); assay: TEVC in Xenopus oocytes, Kir3.4/4(S143F, N179D); type: cell-based; settings: read-out: less inhibition of Kir3.4/4(S143F, N179D) than of Kir3.4/4(S143F)
T3 construct: expressed in transfected cells; host or cells: Xenopus laevis oocytes (cRNA injection)
Experimental: (§1) X. laevis oocytes were isolated and microinjected as previously described ([6]). Human Kir3.1, mouse Kir3.2, and human Kir3.4 DNA constructs were used for electrophysiology experiments. All cRNA constructs were injected in the amount of 2 ng per oocyte. Injected oocytes were incubated for 2 to 3 days at 18 °C to allow for expression. Whole-cell oocyte currents were then measured using a GeneClamp 500 amplifier (Axon Instruments). Microelectrodes had resistances of 0.5 to 1 megohm using a 3M KCl solution in 1.4% agarose. Oocytes were perfused with a low K^+ (LK) solution ND96 (2 mM KCl, 96 mM NaCl, 1 mM MgCl2, 1.8 mM CaCl2, 5 mM HEPES-Na) to establish a baseline for the recordings. Basal current was measured in a high potassium (HK) solution ND96K (96 mM KCl, 10 mM HEPES-K, 1 mM MgCl2, 1.8 mM CaCl2). To block the current, the oocyte chamber was perfused with 4 mM BaCl2 in ND96K. Only the Barium-sensitive current was used for statistical analysis. To measure the inhibitory activity of the channels, 1 μM BP-G1 in ND96K (HK) was used. Typically, oocytes were held at 0 mV (EK) and the current was monitored constantly using a ramp protocol with a command potential from −80 to +80 mV. Current amplitude was measured at the end of a 1 s sweep. All currents were analyzed when they reached steady state. Error bars in the figures represent SD (N > 4).

Histamine H2 = biological target: T4, Histamine H2 (Homo sapiens, UniProt P25021); assay: Radioligand binding, [125I]APT; settings: read-out: % Specific Binding at 10 µM
T4 construct: expressed in transfected cells; host or cells: CHO cells

[3] = biological target: T5, Kir3.4/4(S143F) channel mutant (Homo sapiens, UniProt P48544, S143F); assay: TEVC in Xenopus oocytes, Kir3.4/4(S143F); type: cell-based; settings: read-out: IC50, inhibition of Kir3.4/4(S143F)
T5 construct: expressed in transfected cells; host or cells: Xenopus laevis oocytes (cRNA injection)

α1 adrenergic receptor = assay: Radioligand binding, [3H]prazosin; design: species or system rat
[4] = biological target: T6, Kir3.4/4(S143F) with E147A in the Kir3.4(S143F) subunit (Homo sapiens, UniProt P48544, E147A/S143F); assay: TEVC in Xenopus oocytes, E147A mutant in the Kir3.4(S143F) subunit; type: cell-based; settings: 1 μM
T6 construct: expressed in transfected cells; host or cells: Xenopus laevis oocytes (cRNA injection)
Experimental: as §1

Dopamine transporter = biological target: T7, Dopamine transporter (Homo sapiens, UniProt Q01959); assay: Radioligand binding, [3H]BTCP
T7 construct: expressed in transfected cells; host or cells: CHO cells

Nav1.5 = Nav1.5 (Homo sapiens, UniProt Q14524); assay: Cloned cardiac ion channel manual patch clamp, Nav1.5; type: cell-based; settings: 1Hz; MPC (manual patch clamp)
Experimental: For the data shown in Table S6, HEK293 cells expressing Kir3.1/4, Kir6.2/SUR2A (provided by Dr Andrew Tinker), Kir3.4, Kir2.1, and CHO cell lines stably expressing hERG KV1.5, KV4.3, NaV1.5 were maintained in media containing 10% FCS and appropriate selection antibiotic. Cells were grown either in suspension or in T-flasks and routinely passaged. Cells for patch clamping experiments were plated onto glass cover slips prior to use. Cells for automated patch clamping experiments were freshly prepared on each experimental day.
Standard giga-seal whole-cell patch-clamp techniques were performed at room temperature using glass pipettes (2–5 MΩ). HEKA EPC9/10 amplifiers and Pulse software were used for data acquisition. Series resistance was compensated by >70%. Experimental solutions are given under Supporting information. […]
Ionic current recordings were analyzed using HEKA software. […]
Inhibition of current (or leak-subtracted current) was calculated from steady-state current recorded in the absence (IControl) and presence of test-article (IIntervention). […]
Concentration-response data were fitted with a sigmoidal function of the form above, where YMin and YMax represent maximum and minimum current inhibition which were constrained to 100 and 0 respectively and x is the Log[DRUG (M)] based on GraphPad Prism analysis. % inhibition was calculated as in Equation 1. […]

Kir3.1(D173A) mutant = biological target: T8, Kir3.1(D173A) mutant (Homo sapiens, UniProt P48544+P48549, D173A); assay: TEVC in Xenopus oocytes, Kir3.1(D173A)/4; type: cell-based; settings: 1 μM
T8 construct: expressed in transfected cells; host or cells: Xenopus laevis oocytes (cRNA injection)
Experimental: as §1

T7 sequence (Q01959 whole entry): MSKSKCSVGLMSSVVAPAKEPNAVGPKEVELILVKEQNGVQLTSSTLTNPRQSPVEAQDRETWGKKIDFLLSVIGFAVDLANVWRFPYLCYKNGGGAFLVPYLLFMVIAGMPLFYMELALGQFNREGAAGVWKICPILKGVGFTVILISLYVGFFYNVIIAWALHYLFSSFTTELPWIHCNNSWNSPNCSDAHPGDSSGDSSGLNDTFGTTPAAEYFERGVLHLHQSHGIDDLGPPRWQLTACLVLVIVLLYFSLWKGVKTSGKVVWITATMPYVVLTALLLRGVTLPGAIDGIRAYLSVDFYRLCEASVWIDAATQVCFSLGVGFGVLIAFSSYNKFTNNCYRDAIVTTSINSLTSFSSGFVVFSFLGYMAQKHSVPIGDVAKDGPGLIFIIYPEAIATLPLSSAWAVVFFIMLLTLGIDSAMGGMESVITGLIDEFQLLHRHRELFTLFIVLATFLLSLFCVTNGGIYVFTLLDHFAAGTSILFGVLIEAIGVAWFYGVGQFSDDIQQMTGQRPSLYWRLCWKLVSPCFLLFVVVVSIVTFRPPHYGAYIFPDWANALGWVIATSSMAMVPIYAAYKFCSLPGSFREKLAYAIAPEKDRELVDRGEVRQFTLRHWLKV
T4 sequence (P25021 whole entry): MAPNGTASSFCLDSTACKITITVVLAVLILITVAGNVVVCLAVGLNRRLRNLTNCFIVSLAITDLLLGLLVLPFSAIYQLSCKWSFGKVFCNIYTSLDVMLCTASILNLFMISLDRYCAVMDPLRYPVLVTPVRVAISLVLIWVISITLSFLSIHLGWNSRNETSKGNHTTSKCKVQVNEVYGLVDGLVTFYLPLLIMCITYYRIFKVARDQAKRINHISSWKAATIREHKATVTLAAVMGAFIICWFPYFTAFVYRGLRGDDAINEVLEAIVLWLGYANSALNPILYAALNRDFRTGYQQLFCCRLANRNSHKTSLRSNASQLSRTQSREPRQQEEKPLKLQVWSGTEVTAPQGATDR
T3 sequence (P48544 whole entry S143F/N179D): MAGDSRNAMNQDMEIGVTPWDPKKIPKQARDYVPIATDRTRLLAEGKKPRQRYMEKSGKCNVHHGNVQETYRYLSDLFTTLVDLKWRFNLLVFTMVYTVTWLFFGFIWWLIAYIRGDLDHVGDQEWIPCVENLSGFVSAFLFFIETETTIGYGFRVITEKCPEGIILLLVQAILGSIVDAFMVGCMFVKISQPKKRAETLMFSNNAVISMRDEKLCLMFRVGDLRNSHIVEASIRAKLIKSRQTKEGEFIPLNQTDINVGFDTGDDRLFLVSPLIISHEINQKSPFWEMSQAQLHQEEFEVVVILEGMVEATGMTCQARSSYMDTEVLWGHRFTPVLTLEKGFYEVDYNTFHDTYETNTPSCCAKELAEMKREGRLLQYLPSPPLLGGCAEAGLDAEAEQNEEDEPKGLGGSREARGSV
T3 sequence (P48544 whole entry, stated change not applied): as the sequence (P48544 whole entry S143F/N179D) above, with F143S, D179N counted along it
Chain of Nav1.5 (Q14524 whole entry): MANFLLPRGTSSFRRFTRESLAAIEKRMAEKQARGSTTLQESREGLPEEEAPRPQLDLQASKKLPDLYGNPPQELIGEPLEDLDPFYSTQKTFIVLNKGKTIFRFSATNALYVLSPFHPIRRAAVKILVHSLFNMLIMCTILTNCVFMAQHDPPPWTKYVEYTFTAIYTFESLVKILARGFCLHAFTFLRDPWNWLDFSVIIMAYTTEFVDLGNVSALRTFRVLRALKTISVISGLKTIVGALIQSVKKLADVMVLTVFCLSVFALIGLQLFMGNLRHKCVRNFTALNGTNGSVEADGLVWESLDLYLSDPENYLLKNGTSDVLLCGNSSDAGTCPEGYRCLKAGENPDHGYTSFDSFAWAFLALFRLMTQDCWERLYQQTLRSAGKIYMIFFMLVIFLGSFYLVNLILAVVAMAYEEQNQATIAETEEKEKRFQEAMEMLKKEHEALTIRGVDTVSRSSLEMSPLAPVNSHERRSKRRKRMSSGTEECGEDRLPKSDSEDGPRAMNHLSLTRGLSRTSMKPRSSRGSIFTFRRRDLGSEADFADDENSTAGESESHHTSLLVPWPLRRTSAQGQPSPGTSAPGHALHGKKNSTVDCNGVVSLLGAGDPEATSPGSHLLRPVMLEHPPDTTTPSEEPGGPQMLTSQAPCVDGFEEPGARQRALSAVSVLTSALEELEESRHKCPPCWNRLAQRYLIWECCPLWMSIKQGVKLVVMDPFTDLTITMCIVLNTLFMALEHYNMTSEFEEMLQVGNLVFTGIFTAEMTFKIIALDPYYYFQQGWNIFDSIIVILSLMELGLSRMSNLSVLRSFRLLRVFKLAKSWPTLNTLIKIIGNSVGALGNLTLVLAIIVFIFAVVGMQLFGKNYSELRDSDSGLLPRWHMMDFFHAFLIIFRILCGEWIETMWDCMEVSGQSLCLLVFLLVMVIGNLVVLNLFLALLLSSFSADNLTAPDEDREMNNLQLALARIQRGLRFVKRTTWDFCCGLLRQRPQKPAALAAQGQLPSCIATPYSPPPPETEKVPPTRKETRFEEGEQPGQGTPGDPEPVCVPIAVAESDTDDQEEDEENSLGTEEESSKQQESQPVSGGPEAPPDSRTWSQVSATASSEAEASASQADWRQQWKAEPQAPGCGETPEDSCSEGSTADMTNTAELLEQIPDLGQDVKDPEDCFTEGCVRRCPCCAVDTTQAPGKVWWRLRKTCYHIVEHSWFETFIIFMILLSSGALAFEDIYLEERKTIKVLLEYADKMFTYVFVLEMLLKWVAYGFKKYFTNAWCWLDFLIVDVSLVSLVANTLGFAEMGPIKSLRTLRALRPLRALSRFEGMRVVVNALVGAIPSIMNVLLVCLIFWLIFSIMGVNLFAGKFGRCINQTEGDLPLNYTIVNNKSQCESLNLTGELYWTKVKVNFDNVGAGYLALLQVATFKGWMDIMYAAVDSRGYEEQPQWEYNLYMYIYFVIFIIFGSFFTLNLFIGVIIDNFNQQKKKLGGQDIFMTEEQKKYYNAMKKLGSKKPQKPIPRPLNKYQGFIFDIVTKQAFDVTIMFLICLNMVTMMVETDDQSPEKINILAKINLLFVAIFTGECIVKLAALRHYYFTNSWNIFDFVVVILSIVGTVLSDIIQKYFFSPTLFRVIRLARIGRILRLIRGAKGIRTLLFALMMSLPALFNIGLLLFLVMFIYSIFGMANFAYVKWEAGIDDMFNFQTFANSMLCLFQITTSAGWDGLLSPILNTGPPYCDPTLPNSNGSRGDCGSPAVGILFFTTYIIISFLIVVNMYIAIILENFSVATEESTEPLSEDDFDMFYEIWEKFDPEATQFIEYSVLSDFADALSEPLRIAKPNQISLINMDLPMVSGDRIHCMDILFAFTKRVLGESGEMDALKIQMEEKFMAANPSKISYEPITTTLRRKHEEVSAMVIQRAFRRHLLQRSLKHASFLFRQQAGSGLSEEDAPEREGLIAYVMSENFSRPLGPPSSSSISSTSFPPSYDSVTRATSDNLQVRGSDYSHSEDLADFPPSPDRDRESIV
T1 sequence (P48544 whole entry): as the sequence (P48544 whole entry S143F/N179D) above, with F143S, D179N counted along it
T6 sequence (P48544 whole entry S143F/E147A): as the sequence (P48544 whole entry S143F/N179D) above, with E147A, D179N counted along it
T6 sequence (P48544 whole entry, stated change not applied): as the sequence (P48544 whole entry S143F/N179D) above, with F143S, D179N counted along it
T8 sequence (P48549 whole entry D173A): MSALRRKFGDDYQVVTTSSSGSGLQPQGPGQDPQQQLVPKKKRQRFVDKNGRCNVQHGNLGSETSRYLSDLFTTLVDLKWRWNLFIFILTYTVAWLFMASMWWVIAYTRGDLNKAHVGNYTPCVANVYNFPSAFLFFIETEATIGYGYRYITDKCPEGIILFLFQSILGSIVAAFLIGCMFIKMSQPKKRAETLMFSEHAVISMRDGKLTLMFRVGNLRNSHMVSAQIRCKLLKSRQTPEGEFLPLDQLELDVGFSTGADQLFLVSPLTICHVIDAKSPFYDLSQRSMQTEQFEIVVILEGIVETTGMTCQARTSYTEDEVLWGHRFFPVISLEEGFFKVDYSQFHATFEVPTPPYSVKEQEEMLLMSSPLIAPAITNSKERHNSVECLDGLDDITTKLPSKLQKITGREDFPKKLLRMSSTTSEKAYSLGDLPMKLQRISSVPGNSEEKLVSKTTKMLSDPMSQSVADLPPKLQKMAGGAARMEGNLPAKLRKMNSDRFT
T8 sequence (P48544 whole entry): as the sequence (P48544 whole entry S143F/N179D) above, with F143S, D179N counted along it
T5 sequence (P48544 whole entry S143F): as the sequence (P48544 whole entry S143F/N179D) above, with D179N counted along it
T5 sequence (P48544 whole entry, stated change not applied): as the sequence (P48544 whole entry S143F/N179D) above, with F143S, D179N counted along it

Question: With `Cc1cc(CO)nc2cc3c(cc12)OC(C)(C)[C@H](O)[C@H]3NCCc1ccccc1` [BP-G1, (3R,4S)-7-(hydroxymethyl)-2,2,9-trimethyl-4-(2-phenylethylamino)-3,4-dihydropyrano[2,3-g]quinolin-3-ol] as the molecule, how does the pIC50 (Kir3.4) read?
Answer: Its pIC50 is 4.70.

Question: What about the “% Specific Binding at 10 µM” value (Nav) of the same molecule?
Answer: Its value is 65.1%.

Question: And the “% Specific Binding at 10 µM” value (Nav; listed as Benzopyran-G1)?
Answer: The value was 65.100%.

Question: And the pIC50 (Kir6.2/SUR2A)?
Answer: The pIC50 was under 5.00.

Question: What about the fraction unbound [1] of the same molecule?
Answer: Its fraction unbound is 0.03.

Question: What about the fraction unbound [2] of the same molecule?
Answer: Its fraction unbound is 0.06.

Question: What about the inhibition at 1 µM (Kir3.4/4(S143F, N179D)) of the same molecule?
Answer: Its inhibition at 1 µM is 20%.

Question: And the inhibition at 10 µM (Histamine H2)?
Answer: The inhibition at 10 µM was 35.5%.

Question: And the pIC50 [3]?
Answer: The pIC50 was 7.21.

Question: And the pIC50 (α1 adrenergic receptor)?
Answer: The pIC50 was 4.89.

Question: And the “% Specific Binding at 10 µM” value (α1 adrenergic receptor)?
Answer: The value was 55.6%.

Question: And the “% Specific Binding at 10 µM” value (α1 adrenergic receptor; listed as Benzopyran-G1)?
Answer: The value was 55.567%.

Question: And the pKi (α1 adrenergic receptor; read-out: Ki, α1 (non-selective))?
Answer: Its pKi is 5.46.

Question: And the “block of Kir3.4/4(S143F) carrying E147A” value [4]?
Answer: The value was “abolished block”.

Question: What about the pIC50 (Dopamine transporter) of the same molecule?
Answer: Its pIC50 is 6.00.

Question: What about the pKi (Dopamine transporter) of the same molecule?
Answer: The pKi was 6.26.

Question: And the “nH, Dopamine transporter (h)” value (Dopamine transporter)?
Answer: The value was 1.

Question: And the “% Specific Binding at 10 µM” value (Dopamine transporter; 10 µM)?
Answer: The value was 91.2%.

Question: And the inhibition at 10 µM (Dopamine transporter; 10 µM, read-out: % Specific Binding at 10 µM)?
Answer: The inhibition at 10 µM was 91.2%.

Question: And the pIC50 (Nav1.5)?
Answer: The pIC50 was under 5.00.

Question: What about the “current block, Kir3.1(D173A)” value (Kir3.1(D173A) mutant) of the same molecule?
Answer: The value was about 25%.
